How the values were obtained:
Assay type in all cases: in vivo
Conditions in all cases: 1000 g/h, evaluated after 13 days, five point scale
[1] = tested on: Amaranthus retoflexus (AMARE); assay: Post-emergence glasshouse herbicide test, Amaranthus retoflexus
Description: (§1) Seeds of a variety of test species are sown in standard soil in pots (Lolium perenne (LOLPE), Solanum nigrum (SOLNI), Amaranthus retoflexus (AMARE), Setaria faberi (SETFA), Echinochloa crus-galli (ECHCG), Ipomoea hederacea (IPOHE)). After cultivation for one day (pre-emergence) or after 8 days cultivation (post-emergence) under controlled conditions in a glasshouse (at 24/16° C., day/night; 14 hours light; 65% humidity), the plants are sprayed with an aqueous spray solution derived from the formulation of the technical active ingredient in acetone/water (50:50) solution containing 0.5% Tween 20 (polyoxyethelyene sorbitan monolaurate, CAS RN 9005-64-5). […] The test plants are then grown in a glasshouse under controlled conditions in a glasshouse (at 24/16° C., day/night; 14 hours light; 65% humidity) and watered twice daily. After 13 days for pre and post-emergence, the test is evaluated for the percentage damage caused to the plant. The biological activities are shown in the following table on a five point scale (5=80-100%; 4=60-79%; 3=40-59%; 2=20-39%; 1=0-19%).

Solanum nigrum (SOLNI) [2] = assay: Post-emergence glasshouse herbicide test, Solanum nigrum
Description: (§2) Seeds of a variety of test species are sown in standard soil in pots (Lolium perenne (LOLPE), Solanum nigrum (SOLNI), Amaranthus retoflexus (AMARE), Setaria faberi (SETFA), Echinochloa crus-galli (ECHCG), Ipomoea hederacea (IPOHE)). After cultivation for one day (pre-emergence) or after 8 days cultivation (post-emergence) under controlled conditions in a glasshouse (at 24/16° C., day/night; 14 hours light; 65% humidity), the plants are sprayed with an aqueous spray solution derived from the formulation of the technical active ingredient in acetone/water (50:50) solution containing 0.5% Tween 20 (polyoxyethelyene sorbitan monolaurate, CAS RN 9005-64-5). Compounds are applied at 1000 g/h. The test plants are then grown in a glasshouse under controlled conditions in a glasshouse (at 24/16° C., day/night; 14 hours light; 65% humidity) and watered twice daily. After 13 days for pre and post-emergence, the test is evaluated for the percentage damage caused to the plant. The biological activities are shown in the following table on a five point scale (5=80-100%; 4=60-79%; 3=40-59%; 2=20-39%; 1=0-19%).

[3] = tested on: Echinochloa crus-galli (ECHCG); assay: Post-emergence glasshouse herbicide test, Echinochloa crus-galli
Description: as §1

Setaria faberi (SETFA) [4] = assay: Post-emergence glasshouse herbicide test, Setaria faberi
Description: as §1

[5] = tested on: Amaranthus retoflexus (AMARE); assay: Pre-emergence glasshouse herbicide test, Amaranthus retoflexus
Description: as §1

[6] = tested on: Ipomoea hederacea (IPOHE); assay: Pre-emergence glasshouse herbicide test, Ipomoea hederacea
Description: as §1

[7] = tested on: Ipomoea hederacea (IPOHE); assay: Post-emergence glasshouse herbicide test, Ipomoea hederacea
Description: as §1

[8] = tested on: Echinochloa crus-galli (ECHCG); assay: Pre-emergence glasshouse herbicide test, Echinochloa crus-galli
Description: as §1

Solanum nigrum (SOLNI) [9] = assay: Pre-emergence glasshouse herbicide test, Solanum nigrum
Description: as §2

Lolium perenne (LOLPE) [10] = assay: Pre-emergence glasshouse herbicide test, Lolium perenne
Description: as §1

Lolium perenne (LOLPE) [11] = assay: Post-emergence glasshouse herbicide test, Lolium perenne
Description: as §1

Setaria faberi (SETFA) [12] = assay: Pre-emergence glasshouse herbicide test, Setaria faberi
Description: as §1

Row | SMILES | percentage damage caused to the plant, POST Application AMARE [1] | percentage damage caused to the plant, POST Application SOLNI (Solanum nigrum (SOLNI) [2]) | percentage damage caused to the plant, POST Application ECHCG [3] | percentage damage caused to the plant, POST Application SETFA (Setaria faberi (SETFA) [4]) | percentage damage caused to the plant, PRE Application AMARE [5] | percentage damage caused to the plant, PRE Application IPOHE [6] | percentage damage caused to the plant, POST Application IPOHE [7] | percentage damage caused to the plant, PRE Application ECHCG [8] | percentage damage caused to the plant, PRE Application SOLNI (Solanum nigrum (SOLNI) [9]) | percentage damage caused to the plant, PRE Application LOLPE (Lolium perenne (LOLPE) [10]) | percentage damage caused to the plant, POST Application LOLPE (Lolium perenne (LOLPE) [11]) | percentage damage caused to the plant, PRE Application SETFA (Setaria faberi (SETFA) [12])
1 | Cc1cccc(-n2ncn3nc(C(=O)Nc4nnnn4C)c(=O)nc23)c1 [Compound 1.026] | 5 (5=80-100%) | 5 (5=80-100%) | 5 (5=80-100%) | 5 (5=80-100%) | 5 (5=80-100%) | 4 (4=60-79%) | 5 (5=80-100%) | 5 (5=80-100%) | 5 (5=80-100%) | 5 (5=80-100%) | 4 (4=60-79%) | 5 (5=80-100%)
2 | CCCn1nnnc1NC(=O)c1nn2cnn(-c3ccc(C(F)(F)F)cc3)c2nc1=O [Compound 1.043] | 5 (5=80-100%) | 5 (5=80-100%) | 1 (1=0-19%) | 4 (4=60-79%) | 4 (4=60-79%) | 3 (3=40-59%) | 4 (4=60-79%) | 2 (2=20-39%) | 5 (5=80-100%) | 3 (3=40-59%) | 3 (3=40-59%) | 5 (5=80-100%)
3 | Cn1cnnc1NC(=O)c1nn2cnn(-c3ccc(F)cc3)c2nc1=O [Compound 3.001] | 3 (3=40-59%) | 5 (5=80-100%) | 1 (1=0-19%) | 1 (1=0-19%) | 3 (3=40-59%) | 1 (1=0-19%) | 1 (1=0-19%) | 1 (1=0-19%) | 1 (1=0-19%) | 1 (1=0-19%) | 1 (1=0-19%) | 1 (1=0-19%)
4 | CCCn1nnnc1NC(=O)c1nn2cnn(-c3cccc(OC)c3)c2nc1=O [Compound 1.036] | 5 (5=80-100%) | 5 (5=80-100%) | 4 (4=60-79%) | 5 (5=80-100%) | 5 (5=80-100%) | 4 (4=60-79%) | 5 (5=80-100%) | 5 (5=80-100%) | 5 (5=80-100%) | 5 (5=80-100%) | 5 (5=80-100%) | 5 (5=80-100%)
5 | COc1ccc(-n2ncn3nc(C(=O)Nc4nnnn4C)c(=O)nc23)cc1 [Compound 1.003] | 5 (5=80-100%) | 5 (5=80-100%) | 5 (5=80-100%) | 5 (5=80-100%) | 5 (5=80-100%) | 5 (5=80-100%) | 5 (5=80-100%) | 5 (5=80-100%) | 5 (5=80-100%) | 4 (4=60-79%) | 4 (4=60-79%) | 5 (5=80-100%)
6 | Cn1nnnc1NC(=O)c1nn2cnn(CCCC(F)(F)F)c2nc1=O [Compound 1.011] | 5 (5=80-100%) | 4 (4=60-79%) | 5 (5=80-100%) | 5 (5=80-100%) | 5 (5=80-100%) | 4 (4=60-79%) | 5 (5=80-100%) | 4 (4=60-79%) | 4 (4=60-79%) | 2 (2=20-39%) | 3 (3=40-59%) | 5 (5=80-100%)
7 | CCCn1nnnc1NC(=O)c1nn2cnn(-c3ccccc3C)c2nc1=O [Compound 1.028] | 5 (5=80-100%) | 5 (5=80-100%) | 5 (5=80-100%) | 5 (5=80-100%) | 5 (5=80-100%) | 5 (5=80-100%) | 5 (5=80-100%) | 5 (5=80-100%) | 5 (5=80-100%) | 5 (5=80-100%) | 5 (5=80-100%) | 5 (5=80-100%)
8 | Cn1nnnc1NC(=O)c1nn2cnn(-c3ccc(F)cc3)c2nc1=O [Compound 1.002] | 5 (5=80-100%) | 5 (5=80-100%) | 5 (5=80-100%) | 5 (5=80-100%) | 5 (5=80-100%) | 5 (5=80-100%) | 5 (5=80-100%) | 5 (5=80-100%) | 5 (5=80-100%) | 4 (4=60-79%) | 5 (5=80-100%) | 5 (5=80-100%)
9 | CCCn1nnnc1NC(=O)c1nn2cnn(-c3ccccc3)c2nc1=O [Compound 1.014] | 5 (5=80-100%) | 5 (5=80-100%) | 5 (5=80-100%) | 5 (5=80-100%) | 5 (5=80-100%) | 5 (5=80-100%) | 5 (5=80-100%) | 5 (5=80-100%) | 5 (5=80-100%) | 5 (5=80-100%) | 5 (5=80-100%) | 5 (5=80-100%)
